{"source": "paper PMC4503722", "about": "“Novel Phenotypic Outcomes Identified for a Public Collection of Approved Drugs from a Publicly Accessible Panel of Assays” (PLoS ONE, 2015)", "key": {"HCT116": {"tested_on": "HCT116", "experiment": "cells", "assay_type": "cell-based", "conditions": "basal"}, "HT-29": {"tested_on": "HT-29", "experiment": "cells", "assay_type": "cell-based", "conditions": "basal"}, "SW480": {"tested_on": "SW480", "experiment": "cells", "assay_type": "cell-based", "conditions": "basal"}, "[1]": {"tested_on": "HCT116 cells treated with a GSK3β inhibitor", "experiment": "cells", "assay_type": "cell-based"}, "hFLT3": {"biological_target": "T1, hFLT3 (Homo sapiens, UniProt P36888)", "T1 construct": "purchased Cerep (LANCE kinase assay platform, contract assay)", "T1 sequence (P36888 27-993)": "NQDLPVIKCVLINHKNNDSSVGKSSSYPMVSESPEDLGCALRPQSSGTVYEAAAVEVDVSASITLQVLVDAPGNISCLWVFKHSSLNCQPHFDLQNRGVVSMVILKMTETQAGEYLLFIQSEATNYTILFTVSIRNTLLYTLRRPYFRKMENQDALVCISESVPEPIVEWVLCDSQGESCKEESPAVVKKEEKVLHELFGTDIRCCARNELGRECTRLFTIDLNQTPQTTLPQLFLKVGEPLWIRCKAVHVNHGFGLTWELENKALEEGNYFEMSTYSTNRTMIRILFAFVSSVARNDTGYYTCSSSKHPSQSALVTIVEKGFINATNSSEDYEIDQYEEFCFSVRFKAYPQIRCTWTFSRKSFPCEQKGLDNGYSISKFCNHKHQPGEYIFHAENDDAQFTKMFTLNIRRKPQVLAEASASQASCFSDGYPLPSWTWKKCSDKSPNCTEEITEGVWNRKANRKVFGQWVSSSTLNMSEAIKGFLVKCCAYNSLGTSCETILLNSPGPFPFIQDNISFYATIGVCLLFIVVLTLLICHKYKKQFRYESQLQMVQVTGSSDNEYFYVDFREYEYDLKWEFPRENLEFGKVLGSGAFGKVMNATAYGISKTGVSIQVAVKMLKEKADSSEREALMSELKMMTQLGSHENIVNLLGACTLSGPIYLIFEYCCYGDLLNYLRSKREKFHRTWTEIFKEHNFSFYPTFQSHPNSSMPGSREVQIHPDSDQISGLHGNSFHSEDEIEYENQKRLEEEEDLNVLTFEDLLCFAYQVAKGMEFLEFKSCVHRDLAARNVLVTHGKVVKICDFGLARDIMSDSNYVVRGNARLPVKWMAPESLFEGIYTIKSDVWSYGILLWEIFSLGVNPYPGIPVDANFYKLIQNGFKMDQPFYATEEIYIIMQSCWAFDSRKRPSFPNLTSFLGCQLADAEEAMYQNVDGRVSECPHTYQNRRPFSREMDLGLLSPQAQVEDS", "experiment": "Cerep LANCE kinase assay hFLT3 (S1 assay 35)", "assay_type": "biochemical"}, "hJAK2": {"biological_target": "T2, hJAK2 (Homo sapiens, UniProt O60674)", "T2 construct": "purchased Cerep (LANCE kinase assay platform, contract assay)", "T2 sequence (O60674 whole entry)": "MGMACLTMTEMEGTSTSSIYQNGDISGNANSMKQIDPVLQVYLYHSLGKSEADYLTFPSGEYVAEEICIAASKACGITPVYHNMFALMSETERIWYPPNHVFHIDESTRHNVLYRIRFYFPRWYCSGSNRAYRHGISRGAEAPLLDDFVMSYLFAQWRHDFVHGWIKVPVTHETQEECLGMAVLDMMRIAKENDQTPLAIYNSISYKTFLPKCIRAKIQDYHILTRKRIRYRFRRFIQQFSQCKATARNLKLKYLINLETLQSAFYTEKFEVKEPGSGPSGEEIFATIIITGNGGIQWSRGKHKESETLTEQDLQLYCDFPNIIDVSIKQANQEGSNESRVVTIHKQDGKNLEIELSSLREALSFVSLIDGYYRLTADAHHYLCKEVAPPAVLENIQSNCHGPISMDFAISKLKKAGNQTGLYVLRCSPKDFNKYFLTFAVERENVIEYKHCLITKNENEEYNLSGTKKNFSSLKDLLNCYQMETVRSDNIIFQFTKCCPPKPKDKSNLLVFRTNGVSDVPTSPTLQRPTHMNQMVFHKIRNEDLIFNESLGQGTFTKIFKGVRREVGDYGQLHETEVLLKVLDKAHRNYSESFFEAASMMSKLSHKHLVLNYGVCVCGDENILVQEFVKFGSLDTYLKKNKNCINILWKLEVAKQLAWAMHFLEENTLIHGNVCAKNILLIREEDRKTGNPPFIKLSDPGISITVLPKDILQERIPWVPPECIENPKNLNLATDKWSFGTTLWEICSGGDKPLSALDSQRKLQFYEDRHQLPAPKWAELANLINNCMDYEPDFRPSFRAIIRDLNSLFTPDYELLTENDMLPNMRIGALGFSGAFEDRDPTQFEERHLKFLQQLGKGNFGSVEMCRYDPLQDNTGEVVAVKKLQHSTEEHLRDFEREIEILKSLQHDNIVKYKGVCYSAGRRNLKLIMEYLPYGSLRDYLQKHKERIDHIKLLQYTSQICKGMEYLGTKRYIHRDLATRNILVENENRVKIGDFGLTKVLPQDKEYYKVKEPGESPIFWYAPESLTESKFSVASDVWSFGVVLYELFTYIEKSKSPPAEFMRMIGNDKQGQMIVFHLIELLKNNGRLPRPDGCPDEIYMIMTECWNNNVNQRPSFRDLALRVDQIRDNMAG", "experiment": "Cerep LANCE kinase assay hJAK2 (S1 assay 33)", "assay_type": "biochemical"}, "hp70S6K1 (RPS6KB1)": {"biological_target": "T3, hp70S6K1 (RPS6KB1) (Homo sapiens, UniProt P23443)", "T3 construct": "purchased Cerep (LANCE kinase assay platform, contract assay)", "T3 sequence (P23443 whole entry)": "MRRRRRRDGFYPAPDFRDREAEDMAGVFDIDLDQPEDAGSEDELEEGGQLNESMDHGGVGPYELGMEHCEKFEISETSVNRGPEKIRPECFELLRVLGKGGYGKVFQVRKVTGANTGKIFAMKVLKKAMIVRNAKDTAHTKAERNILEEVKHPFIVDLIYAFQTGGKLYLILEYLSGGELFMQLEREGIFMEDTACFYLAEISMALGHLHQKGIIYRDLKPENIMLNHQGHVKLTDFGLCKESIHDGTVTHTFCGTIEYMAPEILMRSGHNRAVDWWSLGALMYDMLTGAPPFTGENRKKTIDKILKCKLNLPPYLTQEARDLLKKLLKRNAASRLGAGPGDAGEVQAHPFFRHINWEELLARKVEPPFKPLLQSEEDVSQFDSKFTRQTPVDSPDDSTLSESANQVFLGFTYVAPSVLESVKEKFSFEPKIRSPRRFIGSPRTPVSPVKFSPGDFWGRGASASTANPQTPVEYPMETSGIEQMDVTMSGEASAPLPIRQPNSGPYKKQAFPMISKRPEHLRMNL", "experiment": "Cerep LANCE kinase assay hp70S6K1 (S1 assay 31)", "assay_type": "biochemical"}, "RKO": {"tested_on": "RKO", "experiment": "cells", "assay_type": "cell-based", "conditions": "basal"}, "[2]": {"tested_on": "ECFC/ADSC co-culture cell nuclei number"}, "[3]": {"tested_on": "alkaline phosphatase (ALP) activity in C2C12 cells", "assay_type": "cell-based", "conditions": "concentration response"}, "SNU-C1": {"tested_on": "SNU-C1", "experiment": "cells", "assay_type": "cell-based", "conditions": "basal"}, "DLD-1": {"tested_on": "DLD-1", "experiment": "cells", "assay_type": "cell-based", "conditions": "basal"}, "hGSK3b": {"biological_target": "T4, hGSK3b (Homo sapiens, UniProt P49841)", "T4 construct": "purchased Cerep (LANCE kinase assay platform, contract assay)", "T4 sequence (P49841 whole entry)": "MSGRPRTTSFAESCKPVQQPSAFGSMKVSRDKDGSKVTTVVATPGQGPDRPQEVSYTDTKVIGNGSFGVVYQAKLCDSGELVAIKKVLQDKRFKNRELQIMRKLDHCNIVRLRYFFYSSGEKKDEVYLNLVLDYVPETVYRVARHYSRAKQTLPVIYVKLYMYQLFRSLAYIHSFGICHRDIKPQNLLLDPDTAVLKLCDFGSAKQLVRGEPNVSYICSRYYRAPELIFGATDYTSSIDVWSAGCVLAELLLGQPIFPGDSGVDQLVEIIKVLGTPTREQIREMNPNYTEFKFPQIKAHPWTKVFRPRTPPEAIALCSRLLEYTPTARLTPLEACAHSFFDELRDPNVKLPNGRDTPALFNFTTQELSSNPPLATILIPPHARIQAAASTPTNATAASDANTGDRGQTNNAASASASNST", "experiment": "Cerep LANCE kinase assay hGSK3b (S1 assay 34)", "assay_type": "biochemical"}, "HeLa cells": {"tested_on": "HeLa cells", "experiment": "cells", "assay_type": "cell-based"}, "hKDR": {"biological_target": "T5, hKDR (Homo sapiens, UniProt P35968)", "T5 construct": "purchased Cerep (LANCE kinase assay platform, contract assay)", "T5 sequence (P35968 20-1356)": "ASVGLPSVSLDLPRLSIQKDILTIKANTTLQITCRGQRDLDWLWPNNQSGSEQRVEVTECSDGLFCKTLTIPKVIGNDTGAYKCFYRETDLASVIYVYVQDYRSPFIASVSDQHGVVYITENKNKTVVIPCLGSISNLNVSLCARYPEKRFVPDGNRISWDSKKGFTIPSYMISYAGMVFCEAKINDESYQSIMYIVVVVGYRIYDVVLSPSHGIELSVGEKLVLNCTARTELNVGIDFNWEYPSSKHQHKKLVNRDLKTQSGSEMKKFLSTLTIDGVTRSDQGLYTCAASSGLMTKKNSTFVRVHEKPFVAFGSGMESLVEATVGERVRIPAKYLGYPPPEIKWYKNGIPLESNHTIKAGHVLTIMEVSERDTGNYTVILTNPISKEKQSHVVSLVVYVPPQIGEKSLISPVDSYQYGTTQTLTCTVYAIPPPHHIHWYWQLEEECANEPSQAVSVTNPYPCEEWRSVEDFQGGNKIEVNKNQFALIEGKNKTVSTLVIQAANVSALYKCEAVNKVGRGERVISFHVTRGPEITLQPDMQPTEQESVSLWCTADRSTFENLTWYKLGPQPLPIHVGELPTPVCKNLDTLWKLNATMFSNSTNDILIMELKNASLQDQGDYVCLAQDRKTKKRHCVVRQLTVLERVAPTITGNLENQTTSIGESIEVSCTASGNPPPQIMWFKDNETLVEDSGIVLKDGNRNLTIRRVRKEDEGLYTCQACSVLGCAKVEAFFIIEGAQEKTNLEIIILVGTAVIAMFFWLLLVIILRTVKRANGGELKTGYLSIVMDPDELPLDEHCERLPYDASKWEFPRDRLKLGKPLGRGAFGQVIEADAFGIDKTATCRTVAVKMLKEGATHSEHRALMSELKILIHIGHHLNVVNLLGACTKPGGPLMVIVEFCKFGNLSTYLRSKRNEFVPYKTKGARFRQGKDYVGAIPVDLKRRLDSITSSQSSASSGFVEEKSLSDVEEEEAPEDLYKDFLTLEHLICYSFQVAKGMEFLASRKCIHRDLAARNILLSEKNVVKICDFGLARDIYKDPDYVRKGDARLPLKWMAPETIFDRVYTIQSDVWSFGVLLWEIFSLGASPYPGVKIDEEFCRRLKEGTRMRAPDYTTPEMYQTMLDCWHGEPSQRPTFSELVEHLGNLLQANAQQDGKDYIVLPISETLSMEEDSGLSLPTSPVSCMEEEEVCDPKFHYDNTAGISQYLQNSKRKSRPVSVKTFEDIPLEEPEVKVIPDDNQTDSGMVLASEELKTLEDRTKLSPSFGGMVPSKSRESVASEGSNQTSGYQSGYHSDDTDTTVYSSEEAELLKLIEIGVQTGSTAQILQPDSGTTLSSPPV", "experiment": "Cerep LANCE kinase assay hKDR (S1 assay 32)", "assay_type": "biochemical"}, "[4]": {"tested_on": "nuclear β-catenin in C2C12 cells", "experiment": "cells", "assay_type": "cell-based", "conditions": "concentration response"}, "Colo320": {"tested_on": "Colo320", "experiment": "cells", "assay_type": "cell-based", "conditions": "basal"}, "[5]": {"tested_on": "endothelial tube formation in co-cultures of ECFCs and ADSCs treated with VEGF", "experiment": "cells", "assay_type": "cell-based, human"}}, "data": [{"smiles": "COCc1c(C(C)C)nc(C(C)C)c(/C=C/[C@@H](O)C[C@@H](O)CC(=O)[O-])c1-c1ccc(F)cc1.[Na+]", "note": "[NCGC00164625-04]", "values": [{"measurement": "Basal_Viability ATP HCT116 IC50/EC50", "setting": "HCT116; assay number 25", "result": 0.2403, "unit": "µM"}, {"measurement": "Basal_Viability ATP HT-29 IC50/EC50", "setting": "HT-29; assay number 28", "result": 1.212, "unit": "µM"}, {"measurement": "Basal_Viability ATP SW480 IC50/EC50", "setting": "SW480; assay number 24", "result": 0.1433, "unit": "µM"}, {"measurement": "GSK3b inh pretreated_Viability ATP HCT116 IC50/EC50", "setting": "[1]; assay number 26, GSK3b inhibitor pretreated", "result": 0.05291, "unit": "µM"}, {"measurement": "hFLT3 LANCE IC50/EC50", "setting": "hFLT3; assay number 35", "result": "> 20", "unit": "µM"}, {"measurement": "hJAK2 LANCE IC50/EC50", "setting": "hJAK2; assay number 33", "result": "> 20", "unit": "µM"}, {"measurement": "hp70S6K1 LANCE IC50/EC50", "setting": "hp70S6K1 (RPS6KB1); assay number 31", "result": "> 20", "unit": "µM"}, {"measurement": "Basal_Viability ATP RKO IC50/EC50", "setting": "RKO; assay number 29", "result": 1.013, "unit": "µM"}, {"measurement": "VEGF_ADSC\\ECFC Angio Hoechst NucArea IC50/EC50", "setting": "[2]", "result": 0.259, "unit": "µM"}, {"measurement": "WntCondMedia_Alk Phos C2C12 IC50/EC50", "setting": "[3]; assay number 6", "result": "> 20", "unit": "µM"}, {"measurement": "Basal_Viability ATP SNU-C1 IC50/EC50", "setting": "SNU-C1; assay number 30", "result": 1.8733, "unit": "µM"}, {"measurement": "Basal_Viability ATP DLD-1 IC50/EC50", "setting": "DLD-1; assay number 23", "result": 2.507, "unit": "µM"}, {"measurement": "hGSK3b LANCE IC50/EC50", "setting": "hGSK3b; assay number 34", "result": "> 20", "unit": "µM"}, {"measurement": "Hela CellCycMod PI 2N IC50/EC50", "setting": "HeLa cells; assay number 14, 2N", "result": "> 10", "unit": "µM"}, {"measurement": "Hela CellCycMod PI S Phase IC50/EC50", "setting": "HeLa cells; assay number 15, S phase", "result": "> 10", "unit": "µM"}, {"measurement": "Hela CellCycMod PI 4N IC50/EC50", "setting": "HeLa cells; assay number 16, 4N", "result": "> 10", "unit": "µM"}, {"measurement": "Hela CellCycMod PI MI IC50/EC50", "setting": "HeLa cells; assay number 17, MI", "result": "> 10", "unit": "µM"}, {"measurement": "Hela CellCycMod PI Cell Number IC50/EC50", "setting": "HeLa cells; assay number 18, cell number", "result": "> 10", "unit": "µM"}, {"measurement": "hKDR LANCE IC50/EC50", "setting": "hKDR; assay number 32", "result": "> 20", "unit": "µM"}, {"measurement": "WntCondMedia_bCatenin C2C12 IC50/EC50", "setting": "[4]; assay number 5", "result": "> 6.667", "unit": "µM"}, {"measurement": "Basal_Viability ATP Colo 320 IC50/EC50", "setting": "Colo320; assay number 27", "result": 1.924, "unit": "µM"}, {"measurement": "VEGF_ADSC\\ECFC Angio CD31 TubeArea IC50/EC50", "setting": "[5]", "result": 0.0894, "unit": "µM"}]}, {"smiles": "O=c1c(-c2ccccc2)c1-c1ccccc1", "note": "[NCGC00166113-04]", "values": [{"measurement": "IC50/EC50, Basal_Viability ATP HCT116 (assay number 25)", "setting": "HCT116", "result": "> 20", "unit": "µM"}, {"measurement": "IC50/EC50, Basal_Viability ATP HT-29 (assay number 28)", "setting": "HT-29", "result": "> 20", "unit": "µM"}, {"measurement": "IC50/EC50, Basal_Viability ATP SW480 (assay number 24)", "setting": "SW480", "result": "> 20", "unit": "µM"}, {"measurement": "IC50/EC50, GSK3b inh pretreated_Viability ATP HCT116 (assay number 26)", "setting": "[1]; GSK3b inh pretreated", "result": 7.707, "unit": "µM"}, {"measurement": "IC50/EC50, hFLT3 LANCE (assay number 35)", "setting": "hFLT3", "result": "> 20", "unit": "µM"}, {"measurement": "IC50/EC50, hJAK2 LANCE (assay number 33)", "setting": "hJAK2", "result": "> 20", "unit": "µM"}, {"measurement": "IC50/EC50, hp70S6K1 LANCE (assay number 31)", "setting": "hp70S6K1 (RPS6KB1)", "result": "> 20", "unit": "µM"}, {"measurement": "IC50/EC50, Basal_Viability ATP RKO (assay number 29)", "setting": "RKO", "result": "> 20", "unit": "µM"}, {"measurement": "IC50/EC50, VEGF_ADSC\\ECFC Angio Hoechst NucArea (assay number 3)", "setting": "[2]", "result": 6.7548, "unit": "µM"}, {"measurement": "IC50/EC50, WntCondMedia_Alk Phos C2C12 (assay number 6)", "setting": "[3]", "result": 3.6201, "unit": "µM"}, {"measurement": "IC50/EC50, Basal_Viability ATP SNU-C1 (assay number 30)", "setting": "SNU-C1", "result": "> 20", "unit": "µM"}, {"measurement": "IC50/EC50, Basal_Viability ATP DLD-1 (assay number 23)", "setting": "DLD-1", "result": 4.208, "unit": "µM"}, {"measurement": "IC50/EC50, hGSK3b LANCE (assay number 34)", "setting": "hGSK3b", "result": "> 20", "unit": "µM"}, {"measurement": "IC50/EC50, Hela CellCycMod PI 2N (assay number 14)", "setting": "HeLa cells; 2N", "result": "> 10", "unit": "µM"}, {"measurement": "IC50/EC50, Hela CellCycMod PI 4N (assay number 16)", "setting": "HeLa cells; 4N", "result": "> 10", "unit": "µM"}, {"measurement": "IC50/EC50, Hela CellCycMod PI Cell Number (assay number 18)", "setting": "HeLa cells; Cell Number", "result": 1.6859, "unit": "µM"}, {"measurement": "IC50/EC50, Hela CellCycMod PI MI (assay number 17)", "setting": "HeLa cells; MI", "result": "> 10", "unit": "µM"}, {"measurement": "IC50/EC50, hKDR LANCE (assay number 32)", "setting": "hKDR", "result": "> 20", "unit": "µM"}, {"measurement": "IC50/EC50, WntCondMedia_bCatenin C2C12 (assay number 5)", "setting": "[4]", "result": "> 20", "unit": "µM"}, {"measurement": "IC50/EC50, Basal_Viability ATP Colo 320 (assay number 27)", "setting": "Colo320", "result": 3.1012, "unit": "µM"}, {"measurement": "IC50/EC50, VEGF_ADSC\\ECFC Angio CD31 TubeArea (assay number 2)", "setting": "[5]", "result": 3.8353, "unit": "µM"}]}]}
